Assay results reported in publication PMC10692721, “Drug discovery for heart failure targeting myosin-binding protein C” (The Journal of Biological Chemistry, 2023).
*1 amine or outer side, *2 acyl side, *3 side chain or, on linkers, in order; H or OH if unused. Where a SMILES comes first, the peptide text is derived from it. Bridges are numbered along the chain shown (N, C = ends). [ ]: non-standard residue; d: D form. The star is where a group is joined. pTerphenylCO(4''-OnC5H11) = CCCCCOc1ccc(-c2ccc(-c3ccc(C(=O)*)cc3)cc2)cc1; Orn(4R-OH,5R-OH) = O=C([C@H](C[C@@H](O)[C@@H](O)N[*:3])N[*:1])[*:2]; hTyr(3S-OH,4S-OH) = N[C@H](C(=O)O)[C@H](O)[C@@H](O)c1ccc(O)cc1; Pro(3S-OH,4S-Me) = C[C@H]1CN[C@H](C(=O)O)[C@H]1O; Hyp = O=C(O)[C@@H]1C[C@@H](O)CN1

Key:
TMR-cC0-C2 = assay: Selleck library HTS, 532 nm excitation (FLT of TMR-cC0-C2 in presence of FMAL-actin); type: binding, human; details: for 532-nm Δτ, Repeat 1 / 532-nm Δτ, Repeat 2: initial screen, 30 μM compound; for 532-nm z-score (based on avg Δτ): robust z-score, hit threshold ±4, 30 μM compound
Procedure: (§1) Fluorescence lifetime (FLT) measurements were acquired using a high-throughput FLT plate reader (Fluorescence Innovations, Inc) ([14], [27]), provided by Photonic Pharma LLC. […] The observed waveforms were analyzed as described previously ([15], [28]).
(§2) In total, 50 nl of each solution was dispensed in DMSO using an automated Echo 550 acoustic liquid dispenser (Labcyte). Compounds were formatted into the assay plates, at a final concentration of 30 μM, with the first two and second to last columns loaded with DMSO only (compound-free controls). In the final column, 30 μM of suramin was loaded as a positive control (tool compound). These assay plates were then heat-sealed using a PlateLoc Thermal Microplate Sealer (Agilent Technologies) and stored at −20 °C. Before screening, compound plates were equilibrated to room temperature (∼25 °C). […] Plates were incubated at room temperature for 60 min before recording the data with the fluorescence lifetime plate reader.
Hits that exceeded the z-score hit criteria in the donor-only screen were excluded from consideration. To remove compounds with confounding fluorescence properties, a similarity index (SI, specifically the cosine distance, Equation 5) was computed using data from the SUPR instrument by comparing a region (500–540 nm) of the donor-only spectrum (I^(a)) for each well to that of the plate-wide average DMSO spectrum (I^(b)) in the same wavelength band ([29]). Compounds that exceeded an SI robust z-score of 4 were deemed likely fluorescent compounds and removed from consideration.(5) SI=1−∑Ii(a).Ii(b)/∑Ii(a).Ii(a)∑Ii(b).Ii(b)

[1] = tested on: FMAL-actin plus TMR-cC0-C2; assay: Selleck library HTS, 473 nm excitation (FLT of FMAL-actin with TMR-cC0-C2, FLT-FRET); type: binding, human; details: for 473-nm Δτ, Repeat 1 / 473-nm Δτ, Repeat 2: initial screen, 30 μM compound; for 473-nm z-score (based on avg Δτ): robust z-score, hit threshold ±4, 30 μM compound
Procedure: as §1, §2
After fitting the waveforms with a single exponential decay to quantify donor FLT, the change in FLT (Δτ) was computed by performing a moving median subtraction in the order the plate was scanned with a window size of half a plate row […]. The reasons for this are twofold. Firstly, plate gradients are often observed due to the heating of the digitizer during acquisition.
To account for the necessity to correct for plate gradients in the computation of E, the median τDMSO prior to the application of the moving median correction was added to each well’s Δτ value to recover a rescaled value of τ.

[2] = tested on: TMR-fC1-C2 (C1-C2 of fast skeletal MyBP-C); assay: FLT-TMR concentration-response assay, fC1-C2; type: binding; details: 60 μM compound
Procedure: (§3) Compounds identified as initial hits were further examined to determine the concentration–response curves for seven conditions ([1]): FMAL-actin alone identified actin-binding compounds that alter the FLT of FMAL-actin ([2]).
as §1
(§4) The primary hits were dissolved in DMSO to make a 10 mM stock solution, which was serially diluted in 96-well mother plates. Hits were screened at eight concentrations (0.5–100 μM). […] Compounds (1 μl) were transferred from the mother plates into 384-well plates using a Mosquito HV liquid handler (TTP Labtech Ltd, Hertfordshire, UK). The same procedure of dispensing as for the pilot screening was applied in the concentration-response assays. Concentration dependence of the FLT-FRET (E/EDMSO) or FLT-TMR (Δτ) change data was fit to a Hill equation only under certain conditions to help guide the eye (Fig. 4).

[3] = tested on: PKA-phosphorylated TMR-cC0-C2 (cC0-C2#P); assay: FLT-TMR concentration-response assay, PKA-phosphorylated cC0-C2; type: binding, human; details: 60 μM compound
Procedure: as §3, §1, §4

[4] = tested on: TMR-cC0-C2 (C0-C2 fragment of human cMyBP-C); assay: FLT-TMR concentration-response assay (FLT of TMR on cC0-C2, no actin); type: binding; details: for cC0-C2/cC0-C2#P (ratio of FLT changes) / cC0-C2 FLT change (% change from DMSO, FLT of TMR-MyBP-C): 60 μM compound
Procedure: as §3, §1, §4

Structure (SMILES) | 532-nm Δτ, Repeat 1 (TMR-cC0-C2) | 532-nm Δτ, Repeat 2 (TMR-cC0-C2) | 532-nm z-score (based on avg Δτ) (TMR-cC0-C2) | 473-nm Δτ, Repeat 1 [1] | 473-nm Δτ, Repeat 2 [1] | 473-nm z-score (based on avg Δτ) [1] | cC0-C2/fC1-C2 (ratio of FLT changes) [2] | fC1-C2 FLT change (% change from DMSO, FLT of TMR-MyBP-C) [2] | cC0-C2#P FLT change (% change from DMSO, FLT of TMR-MyBP-C) [3] | cC0-C2/cC0-C2#P (ratio of FLT changes) [4] | cC0-C2 FLT change (% change from DMSO, FLT of TMR-MyBP-C) [4] | difference in effect on TMR FLT between unphosphorylated and phosphorylated TMR-cC0-C2 ([4]; from Table 3)
C[C@@H]1O[C@@H](OC[C@H]2O[C@@H](Oc3c(-c4ccc(OCCO)c(OCCO)c4)oc4cc(OCCO)cc(O)c4c3=O)[C@H](O)[C@@H](O)[C@@H]2O)[C@H](O)[C@H](O)[C@H]1O [Troxerutin] | 0.074 ns | 0.088 ns | 4.99 | -0.024 ns | -0.024 ns | -1.32 | 1.0 | 6.0% | 7.3% | 0.8 | 6.1% | 
CCCCCOc1ccc(-c2ccc(-c3ccc(C(=O)N[C@H]4C[C@@H](O)[C@@H](O)NC(=O)[C@@H]5[C@@H](O)[C@@H](C)CN5C(=O)[C@H]([C@@H](C)O)NC(=O)[C@H]([C@H](O)[C@@H](O)c5ccc(O)cc5)NC(=O)[C@@H]5C[C@@H](O)CN5C(=O)[C@H]([C@@H](C)O)NC4=O)cc3)cc2)cc1 [Anidulafungin] ({pTerphenylCO(4''-OnC5H11)}-[Orn(4R-OH,5R-OH)]T[Hyp][hTyr(3S-OH,4S-OH)]T[Pro(3S-OH,4S-Me)]; lactam 1-C) | 0.403 ns | 0.441 ns | 25.80 | 0.014 ns | 0.008 ns | 0.67 | 0.6 | 53.0% | 43.3% | 0.7 | 32.1% | 
COc1nc2ccc(Br)cc2cc1[C@@H](c1ccccc1)[C@@](O)(CCN(C)C)c1cccc2ccccc12.O=C(O)/C=C/C(=O)O [Bedaquiline fumarate] | -0.009 ns | -0.105 ns | -3.45 | -0.324 ns | -0.412 ns | -20.57 | 0.7 | 6.7% | −6.5% | 0.7 | −4.5% | 
CCc1c(Cl)c(O)c(Cl)c(O)c1C(=O)O[C@H]1[C@H](O)[C@H](OC)[C@H](OC/C2=C\C=C\C[C@H](O)/C(C)=C/[C@H](CC)[C@@H](O[C@@H]3OC(C)(C)[C@@H](OC(=O)C(C)C)[C@H](O)[C@@H]3O)/C(C)=C/C(C)=C/C[C@@H]([C@@H](C)O)OC2=O)O[C@@H]1C [Fidaxomicin] | -0.001 ns | -0.028 ns | -0.86 | 0.057 ns | 0.084 ns | 3.98 | 1.2 | −4.3% | −0.5% | 10.4 | −5.2% | 10.4 fold
CC1(C)CCC(C)(C)c2cc(NC(=O)c3ccc(C(=O)O)cc3)ccc21 [Tamibarotene] | 0.075 ns | 0.106 ns | 5.55 | 0.075 ns | 0.067 ns | 4.00 | 0.9 | 5.9% | 7.2% | 0.7 | 5.2% | 
O=C(O)[C@H]1O[C@@H](Oc2cc3oc(-c4ccc(O)cc4)cc(=O)c3c(O)c2O)[C@H](O)[C@@H](O)[C@@H]1O [Scutellarin] | -0.111 ns | -0.145 ns | -7.79 | 0.142 ns | 0.076 ns | 6.15 | 1.0 | −9.5% | −8.7% | 1.0 | −9.1% | 
